Measured values published in patent publication US5646185A, “Tumor treatment method” (priority 1993, dated 1997).
pEC50: −log10 of the molar value.

What was measured:
[1] = tested on: A549 human adenocarcinoma cells; assay: Survival (colony forming) assay of tumor cells under aerobic or hypoxic conditions with drug treatment; details: for aerobic cytotoxicity of the drug by itself: TPA 1 uM, PDA 1 uM, OAG 200 uM, thapsigargin 2 uM, compound 48/80 50 mg/ml, pentoxyfylline 1 mM; for effect on cell survival in normally oxygenated (aerated) cells: aerated A549 cells; for reduction of cell survival in hypoxic cells relative to the cell survival fraction with hypoxia alone: 20 hours of hypoxia (0.02% O2)
Procedure: A549 human adenocarcinoma cells were maintained in culture with alpha MEM containing 10% fetal calf serum. Cells were plated two days before hypoxia treatment in 60 mm glass (Corning) tissue culture dishes with notched sides at a density of 1×10^6 cells/dish. Hypoxia treatment of cells may be performed in any method known and available to those skilled in the art.
On the day of the hypoxia treatment, cells were re-fed with fresh media and incubated 4-6 hours before being exposed to hypoxia. The petri dishes were preferably then placed in specially designed aluminum hypoxia chambers that are prewarmed overnight at 37° C. The chambers were sealed and subjected to successive rounds of evacuation followed by flushing with 95% N2 /5% CO2 while slowly being agitated on a reciprocating shaker. The chambers were then placed in a 37° C. incubator and kept on a reciprocating shaker for the duration of the hypoxic treatment.
Oxygen concentration may be monitored with the use of a Clark-type electrode, such as commercially available from Controls Katharobic, Edmonton, Canada.
After hypoxic treatment, the seals to the chambers were broken, and the cells were washed with phosphate buffered saline, trypsinized, and then plated into tissue culture dishes to assay for colony forming ability.
All drugs were made from fresh stocks on the day of the treatment. In the combined drug and hypoxia treatments, the cells were pretreated for one hour with the drug before being exposed to hypoxia and then plated into tissue culture plates. Cells were then treated in accordance with several different methods: 1) exposure of the cells to thapsigargin for one hour prior to and continuous exposure for the duration of the hypoxia, and then plated for survival; 2) one hour exposure to the PKC activator drug in standard air followed by continuous exposure for the duration of hypoxia, and then plated for survival; 3) continuous exposure during hypoxia to TPA followed by immediate plating for survival; 4) 19 hour hypoxia treatment followed by one hour exposure to TPA in air or hypoxia using a Bactron II anaerobic chamber (Sheldon Labs, Cornelius, Oreg.), and then plating for survival; 5) continuous exposure during 19 hours of hypoxia with phospholipase inhibitors (compound 48/80 and pentoxyfylline), exposure to TPA for 1 hour in air, and then plating for survival.
TPA, PDA, staurosporine, compound 48/80, and pentoxyfylline are commercially available from Sigma Chemicals, St. Louis, Mo. Thapsigargin, herbimycin A, and genistein are commercially available from Gibco/BRL, Gaithersberg, Md.
After various experimental treatments, cells were plated into Nunc tissue culture plates at the appropriate concentrations in triplicate. The plates are placed in a 37° C. incubator and stained 10 days after the experiment with 1% crystal violet in 10% methanol. Viable colonies are defined as colonies with 50 or more cells.

PKC-epsilon = assay: Western blot of PKC epsilon levels in hypoxic tumor cells; assay type: cell-based, human; details: for effect on PKC epsilon induction/activation by hypoxia and TPA: alone or in combination, FIG. 9
Procedure: Western blotting methods, as detailed in Example 2, were used to validate that the treatment method of the invention increases levels of PKC. […] Little accumulation is seen before 9 hours of hypoxic exposure.
Cells were lysed in a 50 mM phosphate buffer, sonicated with 4.5 second pulses of 75 W with cooling on ice between pulses, and followed by 3 rounds of freezing/thawing. Protein concentrations of each sample may be estimated using the bicinchoninic acid method. 200 μg of protein were loaded per lane. After running for 2 hours at 40 mA in a 7.5% polyacrylamide gel, the gel is transferred onto Hybond ECL, (Amersham, Arlington Heights, Ill.) for 2 hours with the use of a Bio-Rad semi-dry transfer system. After the transfer, the gel may be stained with 0.15% Coomassie blue to ensure uniform transfer. […] Preferably, the membrane is probed using the method described in Kim, et al., which is incorporated herein by reference, and autoradiographed utilizing enhanced chemiluminescence (ECL) according to the manufacturer's protocol (Amersham, Arlington Heights, Ill.).

[2] = tested on: A549 human adenocarcinoma cells; assay: Pulsed-field gel electrophoresis of DNA degradation in hypoxia-treated cells; assay type: cell-based; details: added to hypoxia treated cells
Description: The mechanism of cell death by hypoxia appears to be necrosis rather than apoptosis. Using pulsed-field gel electrophoresis, a steady increase in DNA degradation as a function of time under hypoxia may be found. The methods followed those given in Example 2. The pattern of DNA degradation (not shown) is not one that is characteristic of apoptosis. The DNA was not fragmented into distinct nucleosome ladders, which is one of the hallmark characteristics of apoptosis; rather, it separated as a smear which is indicative of death by necrosis.
Pulsed-field gel electrophoresis may be performed in any manner known and available to those skilled in the art. One preferred method is described in Giaccia, 1992b, which is incorporated herein by reference. Briefly, fresh media was added to all of the treatment groups on the day of the treatment. After treatment, cells were washed with phosphate buffered saline (PBS), trypsinized, and resuspended in 1% agarose/PBS. The cells embedded in agarose were allowed to solidify in glass tubes and then cut into 5 mm plugs. The plugs were lysed in 0.5M EDTA, 1% sarkosyl, and 1 mg/ml proteinase K (Boehringer Mannheim, Indianapolis), and incubated at 50° C. for 16 hours in this lysis buffer.
After dialyzing the plugs against 25 volumes of 10 mM Tris and 1 mM EDTA for 4 hours, the plugs were then treated with 20 mg/ml RNase A for 3 hours at 37° C. […]

protein kinase C (PKC) = assay: Protein kinase C (PKC) activation assay; assay type: biochemical; details: approximate
Procedure: The EC50 is the concentration of compound that produces half-maximal stimulation of protein kinase C activity in a given assay.
Protein kinase C activation is measured in an assay that measures PKC phosphorylation activity using as substrate for PKC myelin basic protein. […] The reaction was initiated by an appropriate amount of crude cytosol extract. The phosphorylated product from 10 μl of reaction mixture was quantified using phospho-cellulose paper and washing method of Cook, et al. Background ^32 P incorporation in the absence of calcium and phosphatidyl serine/diolein and in the presence of 1 mM EGTA was subtracted from total incorporation in the complete PKC assay reaction mixture to determine the extent of PKC-dependent phosphorylation.
Suitable for use in this assay as a PKC source is either a crude extract, prepared as below, or, more preferably, purified PKC. Purified PKC is obtained from commercial sources.

Row | Compound | aerobic cytotoxicity of the drug by itself [1] | effect on cell survival in normally oxygenated (aerated) cells ([1]; FIG. 3) | reduction of cell survival in hypoxic cells relative to the cell survival fraction with hypoxia alone ([1]; FIG. 3) | effect on PKC epsilon induction/activation by hypoxia and TPA (PKC-epsilon) | also measured
1 | CCCCCCCC/C=C\CCCCCCCC(=O)OCC(CO)OC(C)=O (stereo not shown) [OAG, 2-acetyl-1-oleoylglycerol] | little or no aerobic cytotoxicity | none of the PKC activators had an appreciable effect on cell survival |  |  | 
2 | CCCCCCCCCC(=O)O[C@@H]1[C@@H](C)[C@@]2(O)[C@@H](C=C(CO)C[C@@]3(O)C(=O)C(C)=C[C@@H]23)[C@@H]2C(C)(C)[C@]12OC(=O)CCCCCCCCC [PDA, 4α-phorbol-12-13-didecanoate] | little or no aerobic cytotoxicity |  |  |  | effect on steady state levels of PKC (PKC-epsilon; data not shown): has no effect; effect on cell survival (control phorbol ester) ([1]; aerobic and hypoxic A549 cells, FIG. 3): indistinguishable from no drug treatment
3 | CCCCCCCCCCCCCC(=O)O[C@@H]1[C@@H](C)[C@@]2(O)[C@@H](C=C(CO)C[C@]3(O)C(=O)C(C)=C[C@@H]23)[C@@H]2C(C)(C)[C@]12OC(C)=O [TPA, 12-O-tetradecanoyl-phorbol-13-acetate] | little or no aerobic cytotoxicity | none of the PKC activators had an appreciable effect on cell survival | about 1,000 fold |  | DNA fragmentation over that found with hypoxia treatment alone [2]: does not increase DNA fragmentation; increase in PKC levels over that of hypoxia alone (PKC-epsilon; one hour exposure following 19 hours of hypoxia, FIG. 7B, 60 min): 5 fold; pEC50 (protein kinase C (PKC)): ~6.00; selective killing of hypoxic versus aerobic cells ([1]; 1 μM, FIG. 3): selectively killed hypoxic, but not aerobic cells
4 | COC1C=CC=C(C)C(=O)NC2=CC(=O)C=C(C2=O)C(OC)C(C)CC(OC)C(OC)C(C)C=C(C)C1OC(N)=O (stereo not shown) [herbimycin A] |  |  |  | has no effect on PKC induction | 
5 | CC(=O)CCCCn1c(=O)c2c(ncn2C)n(C)c1=O [pentoxyfylline] |  |  |  | do not inhibit PKC activation | protection against TPA mediated hypoxic cell killing (increase in survival) ([1]; inhibitor during 19 hours of hypoxia, then TPA 1 hour, FIG. 8): 100 fold
6 | C/C=C(/C)C(=O)O[C@H]1C(C)=C2[C@H]([C@@H]1OC(=O)CCCCCCC)[C@@](C)(OC(C)=O)C[C@H](OC(=O)CCC)[C@@]1(O)[C@H]2OC(=O)[C@@]1(C)O [thapsigargin] | little or no aerobic cytotoxicity | none of the PKC activators had an appreciable effect on cell survival | about 1,000 fold |  | selective killing of hypoxic cells ([1]; 2 μM, FIG. 3): selectively killed hypoxic cells
